From PMC4229098, “Alzheimer's Therapeutics Targeting Amyloid Beta 1–42 Oligomers I: Abeta 42 Oligomer Binding to Specific Neuronal Receptors Is Displaced by Drug Candidates That Improve Cognitive Deficits” (PLoS ONE, 2014)
“Also recorded” adds a separate entry of the source. Where two headings read alike, the source gives them in different places.

Columns and labels:
Abeta 1–42 oligomers = biological target: T1, Abeta 1–42 oligomers (Homo sapiens, UniProt P05067); assay: Oligomer-specific Abeta ELISA (direct action on oligomers); type: biochemical
T1 construct: purchased California Peptide Inc; American Peptide Company; or University of Pittsburgh Peptide Core facility 641-15; 62-0-80; host or cells: chemical synthesis
T1 sequence (P05067 672-713): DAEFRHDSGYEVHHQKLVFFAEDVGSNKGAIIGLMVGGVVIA
Procedure: Determination of oligomeric and monomeric concentrations of Abeta contained in a given Abeta preparation was done according to the method of LeVine. Briefly, total Abeta concentration is measured by two-site ELISA using different capture (6E10 monoclonal antibody, Covance SIG-39320) and detection (4G8- conjugated to biotin, Covance, SIG39240) antibodies and quantifyied with streptavidin-horseradish peroxidase (Millipore catalog number AP308P). Oligomerized Abeta is measured in the same samples by a single-site ELISA in which monoclonal antibodies to the same epitope are used for capture (4G8, Covance SIG-39330) and detection (4G8-biotin). The 4G8-biotin cannot bind to captured monomer because the epitope is blocked by the capture antibody, so only oligomers are detected with this configuration. The streptavidin-horseradish peroxidase therefore reports only oligomeric Abeta which has additional exposed 4G8 epitopes. Monomer concentration is calculated as the difference between total Abeta concentration and oligomer concentration.

[1] = tested on: neuronal synaptic puncta in hippocampal/cortical cultures; assay: Abeta binding assay, neurons (immunofluorescence of neurite puncta); parameters: species or system rat; conditions: for displacement of Abeta oligomers: 15 µM compound added 1 hour after oligomers 0.5 µM, within 1 hour; for prevention of binding of Abeta oligomers to neuronal cultures: 15 µM compound one hour prior to synthetic Abeta oligomers 0.5 µM; for EC50: single site model
[2] = Brain concentration of compounds (LC/MS/MS); type: in vivo, mice; conditions: mouse, 24 h after last dose, read-out: Compound Concentration in brain
Source text: (§1) All procedures were approved by the Institutional Animal Care and Use and Committee at Columbia University and Stanford University and were in compliance with the Office of Laboratory Animal Welfare and the Guide for the Care and Use of Laboratory Animals, Eighth Edition. Behavioral testing of wild-type, 3–4 month old, male, C57/BL6 mice, injected bilaterally into their hippocampus with Abeta oligomers and testing in the fear conditioning task was done according to published methods. Animals were anesthetized with […] Avertin prior to implantation of cannulas into the hippocampus. Testing of transgenic hAPP Swedish/London mice in the Morris water maze or fear conditioning tasks was done according to published methods, [38]. To measure brain concentration of drugs, brains were homogenized in 1 ml PBS per gram of brain tissue using a handheld homogenizer. Brain homogenate was then extracted with three volumes of ice cold methanol on ice for 15 minutes and centrifuged for 15 min. The supernates were analyzed by LC/MS/MS. Samples were compared to a calibration curve prepared in a similar manner by spiking blank control homogenate with standards prepared in DMSO and then extracted as above. At the end of all behavioral testing, animals were euthanized with CO2 followed by cervical dislocation.

[3] = tested on: mouse models of Alzheimer's disease; assay: Behavioral tests (behavioral efficacy summary); type: in vivo, mice; parameters: key to Measured efficacy: statistically significant improvement (+); no significant improvement (-); conditions: for Behavioral efficacy: Table S1
Source text: as §1

[4] = tested on: mature primary hippocampal and cortical cultures; assay: Membrane trafficking assay (MTT formazan exocytosis); type: cell-based, rat; conditions: for Schild slope: against synthetic oligomers; for reversal of trafficking deficit caused by human patient derived Abeta: compound 0.2 µM, Abeta 1.5 pM; for effect on trafficking of compound alone: no Abeta; for activity in blocking effects of Abeta oligomers: control compounds; for Treatment duration for maximum response: Abeta preparation dosed alone;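 on all read-outs here: mixed neuron and glia cultures from E18 Sprague-Dawley rat embryos, grown 3 weeks in 384-well plates, labeled vesicles quantified by imaging or spectrophotometry as percent of vehicle-treated wells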
[5] = tested on: C57/BL6 mice injected with Abeta oligomers; assay: Contextual fear conditioning after intrahippocampal Abeta oligomer injection; type: in vivo; conditions: 2 µM intrahippocampal; for prevention of Abeta oligomer-induced fear memory deficits: one hour prior to oligomer injection; for effect on fear memory when administered alone: without Abeta
Source text: as §1

[6] = tested on: synaptophysin-immunopositive puncta along MAP2-labeled neurites; assay: Synapse counting assay; type: cell-based, rat; conditions: for Affects Synapse density in the absence of Aβ: Table S1
Procedure: Sprague-Dawley rats, 18 days pregnant, were euthanized by CO2 asphyxiation followed by cervical dislocation, and embryos were removed. Hippocampus and cortical tissue from the embryo brains were digested in 2.5% Trypsin (Life Technologies) to dissociate cells. Isolated cells were plated at a density of 4.6×10^4 cells per cm^2 in 384-well poly-D Lysine coated plates (Greiner) in Neurobasal Media (Life Technologies) supplemented with B27 (Life Technologies), Glutamax (Life Technologies) and antibiotics (penicillin, 50 units/ml and streptomycin 50 µg/ml, Life Technologies). Cultures were maintained at 37°C in 5% CO2 with weekly media change for 3 weeks prior to experimentation. These mixed cultures of hippocampal plus cortical neurons and glia were used for all of the in vitro experiments described.
Cultures were treated with compounds for 60 minutes prior to addition of 6 µM (maximum from trafficking dose-response curve) of synthetic Abeta 1–42 oligomers and incubated for 24 hrs. Cultures were fixed and immunofluorescently labeled and imaged as for the Abeta binding assay. The ThermoFisher/Cellomics Neuronal Profiling bioapplication was used to count synaptophysin-immunopositive puncta along MAP2-labeled neurites. The number of puncta per unit length of neurites was used to determine effects of treatments. To attain statistical power of 80% and a p value of less than 0.05 (determined using G*Power software), twenty replicate wells were treated per experiment plate and compared to control wells on the same plate and experiments were repeated four times.

sigma-2/PGRMC1 receptor = biological target: T2, sigma-2/PGRMC1 receptor (Homo sapiens, UniProt Q5BJF2); assay: Sigma-2 radioligand binding; conditions: radioligand competition binding; read-out: Ki, binding affinity at the sigma-2/PGRMC1 receptor
T2 construct: endogenous in cells; host or cells: human Jurkat cells (membranes)
T2 sequence (Q5BJF2 whole entry): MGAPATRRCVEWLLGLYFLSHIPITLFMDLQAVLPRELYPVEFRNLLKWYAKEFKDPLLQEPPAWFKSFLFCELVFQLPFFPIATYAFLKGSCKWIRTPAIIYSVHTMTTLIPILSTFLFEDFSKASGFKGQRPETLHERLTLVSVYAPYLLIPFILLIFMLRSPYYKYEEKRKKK
Procedure: Radioligand competition assays were performed in membranes from human Jurkat cells using 5 nM [^3H]1,3-di(2-tolyl) guanidine in the presence of 1 µM (+)-pentazocine with 10 µM haloperidol to define non-specific binding.

[7] = tested on: hAPP Swe/Ldn transgenic mice; assay: Contextual fear conditioning in transgenic mice; type: in vivo; conditions: 5.5 months, 9 month old males
Source text: as §1

[8] = tested on: hAPP Swe/Ldn transgenic mice; assay: Morris water maze probe trial; type: in vivo; conditions: 42 days
Source text: as §1

[9] = hAPP Swedish/London transgenic, subcutaneous, 1 mg/kg/day s.c. osmotic minipump
[10] = hAPP Swedish/London transgenic, subcutaneous, 10 mg/kg/day s.c. osmotic minipump
[11] = 1 mg/kg/day s.c. osmotic minipump
[12] = 10 mg/kg/day s.c. osmotic minipump
[13] = Rattus norvegicus, compound added 1 hr prior to Abeta oligomers, log value, read-out: Prevention Log EC50 ± SE (converted)
[14] = Rattus norvegicus, compound added 1 hr prior to synthetic Abeta oligomers, read-out: Prevention EC50
[15] = Rattus norvegicus, 1 h, compound added 1 hr after Abeta oligomers, log value, read-out: Treatment Log EC50 ± SE (converted)
[16] = Rattus norvegicus, 1 h, compound added 1 hr after synthetic Abeta oligomers, read-out: Treatment EC50
[17] = hAPP Swe/Ldn transgenic, 10 mg/kg/day once daily oral gavage
[18] = hAPP Swe/Ldn transgenic, 30 mg/kg/day once daily oral gavage
[19] = preparation dosed alone, read-out: EC50 of Abeta preparation

Oc1cccc2cccnc12 [8-OH quinoline, reference compound]
dissociation of preformed oligomers (Abeta 1–42 oligomers): dissociated

CC(C)=CC(C[C@H](C)c1ccc(C)cc1)NCC(C)C (stereo partly drawn) [CT0093]
displacement of Abeta oligomers [1]: 49±5% | prevention of binding of Abeta oligomers to neuronal cultures [1]: 93%±2% | IC50 ([1]; compound before oligomers, read-out: IC50, Abeta binding, prevention): 2.2 µM | EC50 ([1]; pretreatment, read-out: EC50, prevention of Abeta binding): 2.2 ± 2.4 µM | concentration at 24 h [2, 9]: 64 nM | concentration at 24 h [2, 10]: 555 nM | Measured efficacy [3, 11]: - | Measured efficacy [3, 12]: + | Behavioral efficacy [3]: Yes | EC50 [4, 13]: 4.9 µM | EC50 [4, 14]: 4.9 µM | EC50 ([4]; Rattus norvegicus, compound added 1 hr after Abeta oligomers, log value, read-out: Treatment Log EC50 ± SE (converted)): 2 µM | EC50 ([4]; Rattus norvegicus, compound added 1 hr after synthetic Abeta oligomers, read-out: Treatment EC50): 2 µM | Schild slope [4]: 1 | reversal of trafficking deficit caused by human patient derived Abeta [4]: reverse the trafficking deficit | effect on trafficking of compound alone [4]: without affecting trafficking on their own | dissociation of preformed oligomers (Abeta 1–42 oligomers): not by CT0109 or CT0093 | prevention of Abeta oligomer-induced fear memory deficits [5]: completely prevented fear memory deficits | effect on fear memory when administered alone [5]: no effect on memory | Affects Synapse density in the absence of Aβ [6]: No | Ki (sigma-2/PGRMC1 receptor): 0.054 µM

COc1cc(CCC(C)NCc2ccc(C(F)(F)F)cc2)ccc1O (stereo not drawn) [CT0109]
displacement of Abeta oligomers [1]: 44%±3% | prevention of binding of Abeta oligomers to neuronal cultures [1]: 99%±7% | concentration at 24 h [2, 9]: 41 nM | concentration at 24 h [2, 10]: 266 nM | Measured efficacy [3, 11]: + | Measured efficacy [3, 12]: + | Behavioral efficacy [3]: Yes | restoration of trafficking ([4]; 15 µM added 1 hr prior to synthetic Abeta oligomers 3 µM): restores trafficking to vehicle-treated levels | EC50 [4, 15]: 4.07 µM | EC50 [4, 16]: 4.1 µM | EC50 ([4]; Rattus norvegicus, Table S1, read-out: Block Aβ-induced membrane trafficking deficits EC50): 2.2 µM | EC50 [4, 13]: 3.24 µM | EC50 [4, 14]: 3.2 µM | Schild slope [4]: 1 | reversal of trafficking deficit caused by human patient derived Abeta [4]: reverse the trafficking deficit | effect on trafficking of compound alone [4]: without affecting trafficking on their own; also recorded: without affecting vesicles on its own | dissociation of preformed oligomers (Abeta 1–42 oligomers): not by CT0109 or CT0093 | prevention of Abeta oligomer-induced fear memory deficits [5]: completely prevented fear memory deficits | effect on fear memory when administered alone [5]: no effect on memory | Affects Synapse density in the absence of Aβ [6]: No | Ki (sigma-2/PGRMC1 receptor): 0.009 µM

COc1ccc(CCC(C)NC2CCCc3ccccc32)cc1 (stereo not drawn) [CT01206]
Behavioral efficacy [3]: No | EC50 [4, 13]: 4.37 µM | EC50 [4, 14]: 4.3 µM | prevention of Abeta oligomer-induced fear memory deficits [5]: not effective | effect on fear memory when administered alone [5]: caused fear memory deficits in the absence of Abeta | Affects Synapse density in the absence of Aβ [6]: Yes

C[C@H](CCc1ccc(Cl)c(Cl)c1)NCc1ccc(C(F)(F)F)cc1 [CT01344]
displacement of Abeta oligomers [1]: 66±14% | prevention of binding of Abeta oligomers to neuronal cultures [1]: 94%±4% | IC50 ([1]; displacement of pre-bound oligomers, read-out: IC50, Abeta binding, treatment): 3.9 µM | EC50 ([1]; read-out: EC50, displacement of pre-bound Abeta binding): 3.9 ± 1.8 µM | concentration at 24 h [2, 17]: 394 nM | concentration at 24 h [2, 18]: 793 nM | contextual fear memory performance ([7]; 10 mg/kg/day p.o.): significantly improved fear memory performance | contextual fear memory performance ([7]; 30 mg/kg/day p.o.): significantly improved fear memory performance | Measured efficacy ([3]; 10 mg/kg/day oral gavage): + | Measured efficacy ([3]; 30 mg/kg/day oral gavage): + | Behavioral efficacy [3]: Yes | EC50 [4, 15]: 6.46 µM | EC50 [4, 16]: 7.3 µM | EC50 [4, 13]: 8.71 µM | EC50 [4, 14]: 8.7 µM | Schild slope [4]: 1 | restoration of synapse loss induced by Abeta ([6]; 15 µM): 100% | Affects Synapse density in the absence of Aβ [6]: No | Ki (sigma-2/PGRMC1 receptor): 0.048 µM

C[C@H](CCc1ccc(Cl)cc1)NCc1ccc(C(F)(F)F)cc1 [CT01346]
displacement of Abeta oligomers [1]: 93±13% | prevention of binding of Abeta oligomers to neuronal cultures [1]: 93%±4% | concentration at 24 h [2, 17]: 54 nM | concentration at 24 h [2, 18]: 330 nM | contextual fear memory performance ([7]; 30 mg/kg/day p.o.): significantly improved fear memory performance | Measured efficacy ([3]; 10 mg/kg/day oral gavage): - | Measured efficacy ([3]; 30 mg/kg/day oral gavage): + | Behavioral efficacy [3]: Yes | spatial memory retrieval performance, transgenic animals ([8]; 30 mg/kg/day oral, eleven month-old females): significantly improves spatial memory retrieval performance | behavior of treated nontransgenic animals ([8]; 30 mg/kg/day p.o.): behaved similarly to vehicle-treated wild-type animals | EC50 [4, 15]: 8.71 µM | EC50 [4, 16]: 8.7 µM | EC50 [4, 13]: 9.33 µM | EC50 [4, 14]: 9.4 µM | Schild slope [4]: 1 | Affects Synapse density in the absence of Aβ [6]: No | Ki (sigma-2/PGRMC1 receptor): 0.05 µM

C[C@]12N[C@H](Cc3ccccc31)c1ccccc12 [MK-801, reference compound]
activity in blocking effects of Abeta oligomers [4]: only memantine was active

C[N+](C)(C)CCCCCC[N+](C)(C)C [hexamethonium bromide, reference compound]
activity in blocking effects of Abeta oligomers [4]: only memantine was active

CC12CC3CC(C)(C1)CC(N)(C3)C2 [memantine, reference compound]
doses weakly blocking oligomer effects ([4]; control compound vs Abeta oligomers): above 100 µM

O[C@H]1[C@H](O)[C@@H](O)[C@H](O)[C@@H](O)[C@@H]1O [scyllo-inositol, reference compound]
activity in blocking effects of Abeta oligomers [4]: only memantine was active

Synthetic oligomers (low concentration): Abeta 1–42 oligomers formed at 500 nM, high molecular weight fraction from Sephadex G-75 [reference compound]
Treatment duration for maximum response [4]: 1 h | EC50 [4, 19]: 0.0027 µM

semi-synthetic oligomers: Abeta 1–42 monomers incubated in size excluded rat brain homogenate, immunoprecipitated with 6E10 [reference compound]
Treatment duration for maximum response [4]: 1 h | EC50 [4, 19]: 0.0059 µM
